Experimental data published in PMC3907542 (PLoS ONE, 2014).
Where “and” joins values, the source holds several entries; their conditions need not be identical. Identical values can stand only once. Like-named read-outs stand apart in the source and are kept apart here.

Experiments:
rat plasma proteins = experiment: Plasma protein binding of nifedipine in vitro with or without baicalin (ultrafiltration); format: in vitro ADME; conditions: double reciprocal plot, baicalin 250-2000 mg/L
CYP3A [1] = conditions: Lineweaver-Burk plot, RLMs, nifedipine as substrate
Experimental: (§1) The preparation of rat liver microsome (RLM) suspensions were performed as previously reported [38]. […] Briefly, the incubation mixtures (total volume 0.2 ml) contained microsomal protein [...

[2] = Pharmacokinetics of baicalin in rats (plasma Cmax); format: in vivo; conditions: Sprague Dawley, rat, iv, read-out: C max of baicalin
Experimental: All pharmacokinetic data were obtained from 12 animals.
The concentration of baicalin in the blood samples was determined using a slightly modified high-performance liquid chromatography (HPLC) protocol with UV detection at 278 nm. Briefly, 100 µl methanol was added to 25 µl of the blood sample. […] The quantitation limits of baicalin in the rat plasma were 5.86 mg/L.

plasma proteins = tested on: plasma proteins; set-up: method as in earlier work; conditions: plasma protein binding; ref 1 (Tang Y et al); cited from earlier work
CYP3A [3] = experiment: in vitro; conditions: rat, rat liver microsomes, pH 7.4, probe nifedipine
Experimental: as §1

O=C(O)[C@H]1O[C@@H](Oc2cc3oc(-c4ccccc4)cc(=O)c3c(O)c2O)[C@H](O)[C@@H](O)[C@@H]1O [baicalin, 5,6-Dihydroxy-flavone-7-O-glucuronide]
type of interaction between nifedipine and baicalin for rat plasma proteins (rat plasma proteins): competitive | type of inhibition of CYP3A (CYP3A [1]): competitive | Cmax ([2]; baicalin 0.225 g/kg i.v.): 755 µg/mL | Cmax ([2]; baicalin 0.45 g/kg i.v.): 1280 µg/mL | association constant (KA) (plasma proteins): 121000 L/mol | Ki at 30 min (CYP3A [3]): 146 µM and 64.9 µg/mL
